Measured values: patent publication US11421204B2, “Method of removing pluripotent cells from culture” (REPROCELL INCORPORATED, priority 2015, dated 2022)
Entries after “also recorded” stand apart in the source; their conditions may differ.

How the values were obtained:
[1] = tested on: iPS cell (cell line 201B7); test: Evaluation of effects of ALA-PDT for iPS cell (cell form, ALP expression); format: cell-based, human; settings: ALA 1000 micro-M and/or SFC 500 micro-M for 48 hours, blue LED 10 minutes, 24 hours afterward; Blue Alkaline Phosphatase Substrate Kit III
[2] = tested on: normal human dermal fibroblast (HDF); test: Comparison of effects by ALA concentration of ALA-PDT for HDF (CCK8); format: cell-based; settings: ALA 0-1000 micro-M, 4 hours, red LED 10 minutes, CCK8 24 hours afterward
Procedure: Also, the commercial normal human dermal fibroblast (CA106K05a, Cell Applications Inc., HDF) was used for comparative example(s).
(§1) The iPS cell performed the passage process as well as an above-mentioned process was incubated for 2 to 4 minutes by using CTK (collagenase trypsin KSR) in 37 degree-C and then separated by pipetting.
About a normal human dermal fibroblast (HDF), based on the equivalent conditions as above-mentioned “comparison of effects by ALA hydrochloride concentration and photoirradiation of ALA-PDT for iPS cell”, the effects of the ALA concentration and ALA-PDT were compared.

RC001 (iPS cell line) = test: ALA-PDT on iPS cell line RC001, cell survival by CCK8 (Example 2); format: cell-based, human; settings: ALA hydrochloride 125-1000 micro-M, 4 or 24 hours, red LED 10 minutes, cell wraps r8-r10: SURVIVAL/PROLIFERATION SUPPRESSION
Procedure: (§2) As pluripotent stem cell lines, separately, for 201B7 cell line, which is equivalent as above-mentioned Example 1, and for RC001 and RC010 (ReproCELL Inc.), after maintaining as like above-mentioned Example 1, evaluations of the ALA effects were performed.
(§3) Then, each of them was cultivated with culture medium added ALA hydrochloride having concentration (0, 125, 250, 500, 1000 micro-M), respectively.

[3] = tested on: iPS cell (cell line 201B7); test: Evaluation of effects of ALA and/or SFC for iPS cell without photoirradiation (cell form); format: cell-based, human; settings: ALA 1000 micro-M; observed 0, 4, 24, 48 hours after addition; no PDT
Description: As a pluripotent stem cell line, a human iPS cell line (iPSC) established at ReproCELL Inc. and subcultured 50 times was used. For on-feeder cultivation, the cell line of the pluripotent stem cell was maintained on mouse embryonic fibroblast (MEF) feeder cell (RCHEFC003, ReproCELL Inc.) processed by mitomycin C in a 60-mm polystyrene plate (dish) coated by ReproCoat (ReproCELL Inc.) with culture medium for pluripotent stem cells (Primate ES cell medium, RCHEMD001, ReproCELL Inc.) as like the conventional technique. ReproCoat was coated by using on a plate at the concentration of 0.2 micro-g/cm^2 and allowing to keep it at 4 degree-Celsius, overnight.
34 mg of ALA hydrochloride (M. W.=167.6, SBI Pharmaceuticals Co., Ltd.) was weighed, and 1000 micro-L of PBS (−) (Wako Pure Chemical Industries Ltd.) were added. Thereby, 200 mM ALA solution was prepared. The solution of the prepared ALA hydrochloride (hereinafter, it is only called as “ALA solution”) was stored on a freezer at −20 degree-C until use.

human iPS cell = test: Comparison of effects by ALA concentration of ALA-PDT for iPS cell (CCK8); format: cell-based
Procedure: Then, in ALA-PDT for the human iPS cell, the effects for changing the concentration of ALA were compared.
as §1

RC010 (iPS cell line) = test: ALA-PDT on iPS cell line RC010, cell survival by CCK8 (Example 2); format: cell-based, human; settings: ALA hydrochloride 125-1000 micro-M, 4 or 24 hours, red LED 10 minutes, cell wraps r11-r13: SURVIVAL/PROLIFERATION SUPPRESSION
Procedure: as §2, §3

[4] = tested on: neuron performed differentiation induction from the human iPS cell (ReproNeuro); test: Evaluation of effects of ALA-PDT for neuron originated from iPS cell; format: cell-based; settings: red LED 10 minutes
Procedure: Then, the effects by ALA-PDT for the neuron performed differentiation induction from the human iPS cell (neuron originated from iPS cell) were evaluated. The used neuron was ReproNeuro. […] After that, the cell form was observed. Then, the cultured neuron was irradiated with red LED (wavelength of 635 nm) for 10 minutes, and the cell form was observed after 12-hour progresses (overnight). Then, it was exchanged the culture medium, which ALA was not included, and the cell form was observed after cultivating with exchanging the culture media for seven days.

[5] = tested on: iPS cell (cell line 201B7); test: Comparison of effects by wavelength of photoirradiation of ALA-PDT for iPS cell; format: cell-based, human; settings: ALA 100 or 1000 micro-M for 4 hours, red or blue LED 10 minutes, 24 hours afterward
Procedure: Then, the effect by the difference of the wavelength in the photoirradiation of ALA-PDT for a human iPS cell was compared.
Then, the cultured iPS cell was irradiated with red LED (wavelength of 635 nm) or blue LED (wavelength of 405 nm) for 10 minutes, and the cell form was observed 24 hours afterward.
Culture conditions were: used cell line: 201B7 and used culture-medium: Primate ES Cell Medium.

[6] = tested on: hepatic cell originated from human iPS cell; test: Evaluation of effect of ALA-PDT for hepatic cells of iPS cell origin; format: cell-based
Procedure: The effect by ALA-PDT was evaluated for a hepatic cell originated from human iPS cell equivalent to the above-mentioned Example 1. At this example, the culture condition was plating 500,000 cells per well in a 24-well plate, then each concentration (0, 250, 500 micro-M) of ALA hydrochloride was added to the cell on the seventh day, photoirradiation was performed for 10 minutes by red LED 24 hours afterward, then form observation was carried out on the next day and after. The irradiation power of red LED was the same as that of above-mentioned case.

[7] = tested on: 201B7 cell line (iPS cell); test: ALA-PDT on iPS cell line 201B7, cell survival by CCK8 (Example 2); settings: for rate of cell survival as compared with the control: 201B7
[8] = 250 micro-M ALA hydrochloride for 24 hours, red LED 10 minutes

Row | protection of hepatic cells from ALA-PDT ([6]; 250 micro-M ALA, preliminary experiment) | Compound | undifferentiated state by expression of ALP after ALA-PDT [1] | induction of cell death of HDF by ALA-PDT (CCK8) [2] | EFFECT BY ALA (RC001 (iPS cell line)) | influence on the iPS cell (cell form, undifferentiated form) without photoirradiation [3] | cell death of the iPS cell by ALA-PDT (human iPS cell; ALA concentration greater than or equal to 250 micro-M, 4 hours after addition red LED 10 minutes, CCK8 24 hours afterward) [%] | cell death of iPS cell by ALA-PDT (human iPS cell; ALA concentration greater than or equal to about 100 micro-M, other experiment (not shown)) [%] | EFFECT BY ALA (RC010 (iPS cell line)) | survival of neuron after ALA-PDT ([4]; ALA 250, 500 micro-M for 4 hours, cultivation continued for seven days) | cell adhesion and neural spine seven days after ALA-PDT ([4]; seven days after adding 250 micro-M, 500 micro-M ALA) | expression of ALP (undifferentiated state) after ALA-PDT, red vs blue LED [5] | form observation of hepatic cells 24 hours after LED irradiation [6, 8] | form observation of hepatic cells 48 hours after LED irradiation [6, 8] | survival of hepatic cells after ALA-PDT ([6]; ALA hydrochloride 250 and 500 micro-M, red LED 10 minutes, 24 and 60 hours after irradiation) | state of survived hepatic cells, 250 micro-M versus 500 micro-M (visual inspection) ([6]; ALA hydrochloride 250 vs 500 micro-M, red LED 10 minutes) | rate of cell survival as compared with the control ([7]; 250 micro-M ALA, after-addition time 4 hours, red LED 10 minutes, CCK8) [%] | rate of cell survival as compared with the control ([7]; after-addition time 24 hours, red LED 10 minutes, CCK8) [%] | EFFECT BY ALA ([7]; cell line 201B7, ALA hydrochloride 125-1000 micro-M, 4 or 24 hours, red LED 10 minutes, CCK8, cell wraps r5-r7: SURVIVAL/PROLIFERATION SUPPRESSION) | rate of cell survival with after-addition time longer than 24 hours, compared with 24 hours ([7]; preliminary experiment)
1 | – | sodium ferrous citrate [SFC] | maintaining the undifferentiated-like state | – | – | – | – | – | – | – | – | – | – | – | – | – | – | – | – | –
2 | it was protected | NCC(=O)CCC(=O)O [ALA, delta-aminolevulinic acid] | ALP became negative; also recorded: an undifferentiated iPS cell was no longer observed | induction of the cell death by ALA-PDT was not observed | Survival and proliferation for each cell line were suppressed | influence on the iPS cell was not observed | ≥ 60 | ≥ 10 | Survival and proliferation for each cell line were suppressed | continued surviving without extinction and recovered as like the condition before ALA addition | cell adhesion could be confirmed, and the neural spine was elongating in all of them | it became impossible to maintain the undifferentiated state | the cell with clear cobblestone morphology and nucleus remained | the cell with cobblestone morphology and nucleus continued surviving | survived under the various conditions of ALA-PDT were present | the state of the survived cells under the condition of 250 micro-M were better than that of 500 micro-M | 65 | 7 | Survival and proliferation for each cell line were suppressed | there is no change the rate of cell survival
